# Test results from ChEMBL document CHEMBL5154881, “Discovery of First-in-Class TAK1-MKK3 Protein-Protein Interaction (PPI) Inhibitor (R)-STU104 for the Treatment of Ulcerative Colitis through Modulating TNF-α Production” (J Med Chem, 2022).
# Activity calls are given as the source filed them. The calls are words filed in the database; no cut-off is given here.
# Key:
# [1] = test system: RAW264.7; test: Inhibition of LPS-induced TNFalpha production in mouse RAW264.7 cells at 50 uM preincubated for 2 hrs followed by LPS treatment for 24 hrs by RT-qPCR analysis relative to control; type: functional; conditions: time 26 hrs
# [2] = test system: RAW264.7; test: Inhibition of LPS-induced TNFalpha production in mouse RAW264.7 cells preincubated for 2 hrs followed by LPS treatment for 24 hrs by RT-qPCR analysis; type: functional, cell-based
# [3] = test system: Mus musculus; test: Anti-ulcerative colitis activity against DSS-induced ulcerative colitis C57BL/6 mouse model assessed as body weight recovery rate at 50 mg/kg, IG via gavage administered for 7 days and measured everyday relative to control; type: functional; conditions: time 7 day
# [4] = test system: Mus musculus; test: Anti-ulcerative colitis activity in DSS-induced C57BL/6 mouse ulcerative colitis model assessed as colon length recovery ratio at 50 mg/kg, IG via gavage measured after 7 days relative to control; type: functional; conditions: time 7 day
# [5] = test system: Mus musculus; test: Anti-ulcerative colitis activity in DSS-induced C57BL/6 mouse ulcerative colitis model assessed as histopathological score recovery ratio at 50 mg/kg, IG via gavage measured after 7 days by H and E staining method relative to control; type: functional; conditions: time 7 day
# [6] = test system: Mus musculus; test: Antiinflammatory activity against DSS-induced C57BL/6 mouse model of acute ulcerative colitis assessed as inhibition ratio of TNF-alpha protein expression at 50 mg/kg, IG via gavage measured after 7 days by ELISA relative to control; type: functional; set-up: scale not given: the % may be the effect or the level left; conditions: time 7 day
# [7] = test system: Mus musculus; test: Antiinflammatory activity against DSS-induced C57BL/6 mouse model of acute ulcerative colitis assessed as inhibition ratio of IL-1beta protein expression at 50 mg/kg, IG via gavage measured after 7 days by ELISA relative to control; type: functional; set-up: scale not given: the % may be the effect or the level left; conditions: time 7 day
# [8] = test system: Mus musculus; test: Antiinflammatory activity against DSS-induced C57BL/6 mouse model of acute ulcerative colitis assessed as inhibition ratio of IL-6 protein expression at 50 mg/kg, IG via gavage measured after 7 days by ELISA relative to control; type: functional; set-up: scale not given: the % may be the effect or the level left; conditions: time 7 day
# [9] = test system: Mus musculus; test: Antiinflammatory activity against DSS-induced C57BL/6 mouse model of acute ulcerative colitis assessed as inhibition ratio of IL-23 protein expression at 50 mg/kg, IG via gavage measured after 7 days by ELISA relative to control; type: functional; set-up: scale not given: the % may be the effect or the level left; conditions: time 7 day
# [10] = test system: Mus musculus; test: Antiinflammatory activity against DSS-induced C57BL/6 mouse model of acute ulcerative colitis assessed as inhibition ratio of IL-6 mRNA expression in colon tissue at 50 mg/kg, IG via gavage measured after 7 days by RT-qPCR analysis relative to control; type: functional; set-up: scale not given: the % may be the effect or the level left; conditions: time 7 day
# [11] = test system: Mus musculus; test: Antiinflammatory activity against DSS-induced C57BL/6 mouse model of acute ulcerative colitis assessed as inhibition ratio of TNF-alpha mRNA expression in colon tissue at 50 mg/kg, IG via gavage measured after 7 days by RT-qPCR analysis relative to control; type: functional; set-up: scale not given: the % may be the effect or the level left; conditions: time 7 day
# [12] = test system: Mus musculus; test: Anti-ulcerative colitis activity in IL-10-/- C57BL/6 mouse model of ulcerative colitis assessed as colon length recovery ratio at 50 mg/kg, IG via gavage for 8 weeks relative to control; type: functional
# [13] = test system: Mus musculus; test: Anti-ulcerative colitis activity in IL-10-/- C57BL/6 mouse model of ulcerative colitis assessed as histopathological score recovery ratio at 50 mg/kg, IG via gavage for 8 weeks relative to control; type: functional
# [14] = test system: Mus musculus; test: Antiinflammatory activity against IL-10-/- C57BL/6 mouse model of ulcerative colitis assessed as inhibition ratio of TNF-alpha protein expression at 50 mg/kg, IG via gavage and measured after 8 weeks by ELISA relative to control; type: functional; set-up: scale not given: the % may be the effect or the level left
# [15] = test system: Mus musculus; test: Antiinflammatory activity against IL-10-/- C57BL/6 mouse model of ulcerative colitis assessed as inhibition ratio of IL-1beta protein expression at 50 mg/kg, IG via gavage and measured after 8 weeks by ELISA relative to control; type: functional; set-up: scale not given: the % may be the effect or the level left
# [16] = test system: Mus musculus; test: Antiinflammatory activity against IL-10-/- C57BL/6 mouse model of ulcerative colitis assessed as inhibition ratio of IL-6 protein expression at 50 mg/kg, IG via gavage and measured after 8 weeks by ELISA relative to control; type: functional; set-up: scale not given: the % may be the effect or the level left
# [17] = test system: Mus musculus; test: Antiinflammatory activity against IL-10-/- C57BL/6 mouse model of ulcerative colitis assessed as inhibition ratio of IL-23 protein expression at 50 mg/kg, IG via gavage and measured after 8 weeks by ELISA relative to control; type: functional; set-up: scale not given: the % may be the effect or the level left
# [18] = test system: Mus musculus; test: Antiinflammatory activity against IL-10-/- C57BL/6 mouse model of ulcerative colitis assessed as inhibition ratio of TNF-alpha mRNA expression in colon tissue at 50 mg/kg, IG via gavage and measured after 8 weeks by RT-qPCR analysis relative to control; type: functional; set-up: scale not given: the % may be the effect or the level left
# [19] = test system: Mus musculus; test: Antiinflammatory activity against IL-10-/- C57BL/6 mouse model of ulcerative colitis assessed as inhibition ratio of IL-1beta mRNA expression in colon tissue at 50 mg/kg, IG via gavage and measured after 8 weeks by RT-qPCR analysis relative to control; type: functional; set-up: scale not given: the % may be the effect or the level left
# [20] = test system: Mus musculus; test: Antiinflammatory activity against IL-10-/- C57BL/6 mouse model of ulcerative colitis assessed as inhibition ratio of IL-6 mRNA expression in colon tissue at 50 mg/kg, IG via gavage and measured after 8 weeks by RT-qPCR analysis relative to control; type: functional; set-up: scale not given: the % may be the effect or the level left
# [21] = test system: Mus musculus; test: Antiinflammatory activity against IL-10-/- C57BL/6 mouse model of ulcerative colitis assessed as inhibition ratio of IL-23 mRNA expression in colon tissue at 50 mg/kg, IG via gavage and measured after 8 weeks by RT-qPCR analysis relative to control; type: functional; set-up: scale not given: the % may be the effect or the level left
# [22] = test system: Mus musculus; test: Anti-ulcerative colitis activity against DSS-induced ulcerative colitis C57BL/6 mouse model assessed as reduction in DAI score at 50 mg/kg, IG via gavage administered for 7 days and measured everyday (reference value: 4.0); type: functional; conditions: time 7 day
# [23] = test system: Mus musculus; test: Anti-ulcerative colitis activity against DSS-induced ulcerative colitis C57BL/6 mouse model assessed as reduction in DAI recovery score ratio at 50 mg/kg, IG via gavage administered for 7 days and measured everyday relative to control; type: functional; set-up: scale not given: the % may be the effect or the level left; conditions: time 7 day
# [24] = test system: Mus musculus; test: Antiinflammatory activity against DSS-induced C57BL/6 mouse model of acute ulcerative colitis assessed as inhibition of IL-23 mRNA expression in colon tissue administered intragastrically via gavage measured after 7 days by RT-qPCR analysis; type: functional, organism-based; conditions: route ig, time 7.0 day, DDE = dose-dependent effect
# [25] = test system: Mus musculus; test: Anti-ulcerative colitis activity in IL-10-/- C57BL/6 mouse ulcerative colitis model assessed as animal survival at 50 mg/kg, IG via gavage for 8 weeks; type: functional, organism-based
# [26] = test system: Peritoneal macrophage; test: Inhibition of LPS-induced TNFalpha production in mouse peritoneal macrophage at 2.6 uM incubated overnight by immunoassay relative to control; type: functional
compound,measurement,setting,value
COc1cc(OC)c2c(c1)C(=O)CC2c1ccccc1C (stereo not given),inhibition at 50 µM,[1],77.6%
same,IC50,[2],4 µM
COc1cc2c(cc1OC)C(c1ccc(C)cc1)CC2=O (stereo not given),inhibition at 50 µM,[1],55.2%
same,IC50,[2],47.3 µM
COc1cc(OC)c2c(c1)C(=O)CC2c1csc2ccccc12 (stereo not given),inhibition at 50 µM,[1],5.9%
Cc1ccc(C2CC(=O)c3cc4c(cc32)OCO4)cc1 (stereo not given),inhibition at 50 µM,[1],66.2%
same,IC50,[2],43.6 µM
COc1cc(OC)c2c(c1)C(=O)CC2c1ccc(F)cc1 (stereo not given),inhibition at 50 µM,[1],-4.2%
COc1cc(OC)c2c(c1)C(=O)CC2c1ccc(C)cc1 (stereo not given),inhibition at 50 µM,[1],49.9%
same,IC50,[2],48.3 µM
COc1cc(OC)c2c(c1)C(=O)CC2c1ccc(Cl)cc1 (stereo not given),inhibition at 50 µM,[1],-98.9%
Nc1ccc(O)c(C(=O)O)c1 [MESALAMINE],Activity,[3],38.3%
same,Activity,[4],39.4%
same,Activity,[5],38.3%
same,Activity,[6],43.2%
same,Activity,[7],47.3%
same,Activity,[8],53.5%
same,Activity,[9],27.5%
same,Activity,[10],46%
same,Activity,[11],48.7%
same,Activity,[12],32.4%
same,Activity,[13],44.3%
same,Activity,[14],42.2%
same,Activity,[15],44%
same,Activity,[16],54.9%
same,Activity,[17],55.7%
same,Activity,[18],30.1%
same,Activity,[19],36.9%
same,Activity,[20],46.3%
same,Activity,[21],54.7%
same,Activity,[22],3
same,Activity,[23],25%
same,Activity,[24],Dde
same,Activity,[25],Active
COc1ccc(C2c3c(OC)cc(OC)cc3C(=O)C2c2cc(OC)cc(OC)c2)cc1 (stereo not given),inhibition at 50 µM,[1],62.3%
same,IC50,[2],46 µM
COc1cc(OC)cc(C2CC(=O)c3cc(OC)ccc32)c1 (stereo not given),inhibition at 50 µM,[1],0.2%
same,IC50,[2],3.52 µM
COc1ccc2c(c1)C(=O)CC2c1ccc(F)cc1 (stereo not given),inhibition at 50 µM,[1],6.5%
COc1ccc(C2CC(=O)c3cc(OC)cc(OC)c32)cc1 (stereo not given),inhibition at 50 µM,[1],82.6%
same,IC50,[2],1.26 µM
COc1cc(OC)c2c(c1)C(=O)CC2c1ccc2c(c1)OCO2 (stereo not given),inhibition at 50 µM,[1],15.5%
COc1ccc([C@@H]2CC(=O)c3cc(OC)cc(OC)c32)cc1,IC50,[2],> 50 µM
COc1cc(OC)c2c(c1)C(=O)CC2c1ccc(SC)cc1 (stereo not given),inhibition at 50 µM,[1],79.8%
same,IC50,[2],3.92 µM
COc1cc(OC)c2c(c1)C(=O)CC2c1ccc(OC(C)(F)F)cc1 (stereo not given),inhibition at 50 µM,[1],76.5%
same,IC50,[2],4.51 µM
COc1cc(OC)c2c(c1)C(=O)CC2c1ccc(Br)cc1 (stereo not given),inhibition at 50 µM,[1],-88.5%
COc1cc2c(cc1OC)C(c1ccc(F)cc1)CC2=O (stereo not given),inhibition at 50 µM,[1],80%
O=C1CC(c2ccc(F)cc2)c2cc3c(cc21)OCO3 (stereo not given),inhibition at 50 µM,[1],5.3%
COc1cc(OC)c2c(c1)C(=O)CC2c1cccs1 (stereo not given),inhibition at 50 µM,[1],5.6%
COc1cc(C2CC(=O)c3cc(OC)c(OC)c(OC)c32)cc(OC)c1OC (stereo not given),inhibition at 2.6 µM,[26],55%
COc1cc(OC)c2c(c1)C(=O)CC2c1ccc2cc(OC)ccc2c1 (stereo not given),inhibition at 50 µM,[1],4.6%
same,IC50,[2],51.5 µM
COc1cc(OC)c2c(c1)C(=O)CC2c1ccc(OC(F)(F)F)cc1 (stereo not given),inhibition at 50 µM,[1],4.4%
